One compound from US20100184037A1, “DEATH ASSOCIATED PROTEIN KINASE 1 (DAPK1) AND USES THEREOF FOR THE TREATMENT OF CHRONIC LYMPOCYTIC LEUKEMIA” (THE OHIO STATE UNIVERSITY RESEARCH FOUNDATION, priority 2007, published 2010) can be followed below.

In one experiment the test system is DAPK1. The experiment in a line: Decitabine treatment of Raji cells, RT-PCR for DAPK1. It is filed as cell-based. Particulars: for 3, 6, 9, and 12 days. The source says:
Next we treated Raji cells with 0.51.LM Decitabine for 3, 6, 9, and 12 days.
Blood was obtained from patients with B-cell CLL through the CLL Research Consortium (CRC), from the Ohio State University and Uppsala University tissue banks. CLL patients from OSU and CRC consortium and healthy volunteers provided written informed consent using Institutional Review Board-approved protocols. Written consent for Uppsala samples was provided according to the declaration of Helsinki. Seven CD 19+ selected CLL samples were obtained by positive selection using magnetic beads conjugated to anti-CD19 (MACS, Miltenyi Biotec, Auburn Calif.). The resulting cells are at least 95% CD19 positive. All patients had immunophenotypically defined CLL as outlined by the modified 96 NCI criteria (Cheson et al., 1996) and for Uppsala samples, according to WHO classification. The CLL cell line WaC3CD5, described previously (Wendel-Hansen et al., 1994), Jurkat, Raji and lymphoblastoid cell lines were incubated (37° C. and 5% C02) in RPMI 1640 supplemented with 10% FBS (HyClone Laboratories, Logan, Utah), 2 mM L-glutamine, 100 U/ml penicillin, and 100 μg/ml streptomycin (all from Invitrogen, Carlsbad Calif.). […]
Semi-quantitative RT-PCR was performed as described previously (Liu et al., 2006). […] The expression data was analyzed by comparative Ct method. […]

A further experiment deals with DAPK1 promoter. The experiment is described as follows: Bisulfite sequencing of the BS1 region of Decitabine-treated Raji cells. It is filed as cell-based. To be noted: Decitabine 0.5 μM, untreated 55%. Here is the method:
FIG. 2F—Bisulfite treatment for untreated and 6 and 12 days 5-aza-2′-deoxycytidine treated (0.5 μM) Raji cells. Bisulfite treated DNA was amplified for the BS1 region (c.1-1509 to c.1-1262) comprising 30 CpGs and cloned. Sequencing was done for 7-10 clones for each sample. Each row represents a clone. The open circles indicate unmethylated CpG, and closed circles indicate methylated CpG. The overall methylation frequency is given in (%) on the right.
One microgram of genomic DNA was treated with sodium […] according to published protocols (Herman et al., 1996). Regions BS1 and BS2 were amplified (primers are available upon request). The PCR product was purified using the Qiagen Gel Extraction kit (Qiagen, Chatsworth, Calif.) according to the manufacturer's protocol and subcloned using the TOPO TA-Cloning kit (Invitrogen) followed by sequencing of 8-10 clones for each sample using ABI big dye technology.

Regarding `Nc1ncn([C@H]2C[C@H](O)[C@@H](CO)O2)c(=O)n1` [Decitabine, 5-aza-2′-deoxycytidine], in the experiment with DAPK1, the “DAPK1 expression (RT-PCR)” value is listed as “gradual up-regulation of DAPK1 expression”. Moreover, the “DNA methylation of CpG dinucleotides, BS1 region” value in the experiment with DAPK1 promoter (day 6 (70/240)) amounted to 29%; with DAPK1 promoter (day 12 (68/270)), 25%.
